Measurements taken from patent US10076519B2 (CYTOKINETICS, INC., priority 2010, dated 2018).

Tested on: rabbit skeletal myofibrils (fast skeletal myofibrils)
Experiment: Activation of fast skeletal myofibrils (PUMA assay, PK/LDH-coupled ATPase at pCa25)
Type: biochemical
Outline: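 ATPase activity of Triton-washed rabbit skeletal myofibrils, roughly 90% fast fibres, tracked by NADH loss at 340 nm through a PK/LDH-coupled ADP-regenerating system. Calcium set to 25% of maximal activity (pCa25), in PIPES 12 mM pH 6.8 with 2 mM MgCl2 and 1 mM DTT; AC1.4 reported.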

[1] = median AC1.4 reported as class, procedure of Example 39
[2] = median AC1.4 class, procedure of Example 39
[3] = AC1.4 determined according to the procedure of Example 39, reported as class symbols

Mean AC1.4 [2] | Mean AC1.4 [3] | Structure (SMILES) | other results
 |  | NC(=O)Cc1csc(-c2ccc(NCC3(c4ncccc4F)CCC3)nn2)n1 [2-{2-[6-({[(3-fluoro-2-pyridyl)cyclobutyl]methyl}ami-no)pyridazin-3-yl]-1,3-thiazol-4-yl}acetamide] | Mean AC1.4 [1]: D (D=>20 uM)
B (B=1-10 uM) |  | NC(=O)Cc1cnc(-c2ccc(NCC3(c4ncccc4F)CCC3)nn2)s1 [2-{2-[6-({[(3-fluoro-2-pyridyl)cyclobutyl]methyl}ami-no)pyridazin-3-yl]-1,3-thiazol-5-yl}acetamide] | 
 |  | O=C(O)Cc1cnc(-c2ccc(NCC3(c4ncccc4F)CCC3)nn2)s1 [2-{2-[6-({[(3-fluoro-2-pyridyl)cyclobutyl]methyl}ami-no)pyridazin-3-yl]-1,3-thiazol-5-yl}acetic acid] | Mean AC1.4 [1]: B (B=1-10 uM)
C (C=10-20 uM) |  | CC(C)(O)c1cnc(-c2ccc(NCC3(c4ncccc4F)CCC3)nn2)s1 [2-{2-[6-({[(3-fluoro-2-pyridyl)cyclobutyl]methyl}ami-no)pyridazin-3-yl]-1,3-thiazol-5-yl}propan-2-ol] | 
 |  | NC(=O)Cc1ccc(F)c(-c2ccc(NCC3(c4ncccc4F)CCC3)nn2)c1 [2-{4-fluoro-3-[6-({[(3-fluoro(2-pyridyl))cyclobutyl]methyl}ami-no)pyridazin-3-yl]phenyl}acetamide] | Mean AC1.4 [1]: B (B=1-10 uM)
D (D=>20 uM) |  | NC(=O)Cn1nnc(-c2ccc(NCC3(c4ncccc4F)CCC3)nn2)n1 [2-{5-[6-({[(3-fluoro-2-pyridyl)cyclobutyl]methyl}ami-no)pyridazin-3-yl]-1,2,3,4-tetraazol-2-yl}acetamide] | 
A (A=<1 uM) |  | CC(C)(CNc1ccc(-c2ccc3[nH]nc(NCCO)c3c2)nn1)c1ccc(F)cc1 [2-{[5-(6-{[2-(4-fluorophenyl)-2-methylpropyl]amino}pyridazin-3-yl)-1H-indazol-3-yl]amino}ethan-1-ol] | 
 |  | NC(=O)c1csc(NC(=O)c2ccc(NCC3(c4ncccc4F)CCC3)nn2)n1 [2-{[6-({[(3-fluoro-2-pyridyl)cyclobutyl]methyl}ami-no)pyridazin-3-yl]carbonylamino}-1,3-thiazole-4-carboxamide] | Mean AC1.4 [1]: A (A=<1 uM)
 |  | NC(=O)C1CCCC1NC(=O)c1ccc(NCC2(c3ncccc3F)CCC2)nn1 (stereo not drawn) [2-{[6-({[(3-fluoro-2-pyridyl)cyclobutyl]methyl}ami-no)pyridazin-3-yl]carbonylamino}cyclopentane-carboxamide] | Mean AC1.4 [1]: D (D=>20 uM)
 |  | NC(=O)c1coc(NC(=O)c2ccc(NCC3(c4ncccc4F)CCC3)nn2)n1 [2-{[6-({[(3-fluoro-2-pyridyl)cyclobutyl]methyl}amino)pyr-idazin-3-yl]carbonylamino}-1,3-oxazole-4-carboxamide] | Mean AC1.4 [1]: D (D=>20 uM)
A (A=<1 uM) |  | O=C(NCc1cnc(-c2ccc(NCC3(c4ncccc4F)CCC3)nn2)s1)c1cn[nH]n1 [2H-1,2,3-triazol-4-yl-N-({2-[6-({[(3-fluoro(2-pyridyl))cyclobutyl]methyl}ami-no)pyridazin-3-yl](1,3-thiazol-5-yl)}methyl)carboxamide] | 
 | D (D=>20 uM) | CS(=O)(=O)N1CC(CNc2ccc(-c3ccc4[nH]ncc4c3)nn2)(c2ncccc2F)C1 [3-(3-fluoro(2-pyridyl))-3-{[(6-(1H-indazol-5-yl)pyridazin-3-yl)amino]methyl}-1-(methylsulfonyl)azetidine] | 
 | C (C=10-20 uM) | CC(C)(CNc1nnc(-c2cccc(C(N)=O)c2)cc1C#N)c1ccc(F)cc1 [3-(5-cyano-6-{[2-(4-fluorophenyl)-2-methylpropyl]amino}pyridazin-3-yl)benzamide] | 
B (B=1-10 uM) |  | CC(C)(Nc1ccc(-c2cc(C(N)=O)ccc2F)nn1)c1ncccc1Cl [3-(6-{[1-(3-chloro(2-pyridyl))-isopropyl]amino}pyridazin-3-yl)-4-fluorobenzamide] | 
B (B=1-10 uM) |  | CC(C)(Nc1ccc(-c2cccc(C(N)=O)c2)nn1)c1cccc(F)c1 [3-(6-{[1-(3-fluorophenyl)-isopropyl]amino}pyridazin-3-yl)benzamide] | 
B (B=1-10 uM) |  | CC(C)(Nc1ccc(-c2cccc(C(N)=O)c2)nn1)c1ccc(F)cc1 [3-(6-{[1-(4-fluorophenyl)-isopropyl]amino}pyridazin-3-yl)benzamide] | 
 | B (B=1-10 uM) | CC(C)(CNc1ccc(-c2cccc(C(N)=O)c2)nn1)c1ccc(F)cc1F [3-(6-{[2-(2,4-difluorophenyl)-2-methylpropyl]amino}pyridazin-3-yl)benzamide] | 
 | A (A=<1 uM) | CC(C)(CNc1ccc(-c2cccc(C(N)=O)c2)nn1)c1ccccc1Cl [3-(6-{[2-(2-chlorophenyl)-2-methylpropyl]amino}pyridazin-3-yl)benzamide] | 
 | B (B=1-10 uM) | CCC(CNc1ccc(-c2cccc(C(N)=O)c2)nn1)c1ccccc1F (stereo not drawn) [3-(6-{[2-(2-fluoro-phenyl)butyl]amino}pyridazin-3-yl)benzamide] | 
 | A (A=<1 uM) | CC(C)(CNc1ccc(-c2cccc(C(N)=O)c2)nn1)c1ccccc1F [3-(6-{[2-(2-fluorophenyl)-2-methylpropyl]amino}pyridazin-3-yl)benzamide] | 
 | D (D=>20 uM) | COCCC(CNc1ccc(-c2cccc(C(N)=O)c2)nn1)c1ccccc1F (stereo not drawn) [3-(6-{[2-(2-fluorophenyl)-4-methoxybutyl]amino}pyridazin-3-yl)benzamide] | 
 | B (B=1-10 uM) | CC(C)(CNc1ccc(-c2cccc(C(N)=O)c2)nn1)c1ncc(F)cc1F [3-(6-{[2-(3,5-difluoro(2-pyridyl))-2-methylpropyl]amino}pyridazin-3-yl)benzamide] | 
A (A=<1 uM) |  | CC(C)(CNc1ccc(-c2cc(C(N)=O)ccc2F)nn1)c1ncccc1Cl [3-(6-{[2-(3-chloro(2-pyridyl))-2-methylpropyl]amino}pyridazin-3-yl)-4-fluorobenzamide] | 
B (B=1-10 uM) |  | CC(C)(CNc1ccc(-c2cc(C#N)ccc2F)nn1)c1ncccc1Cl [3-(6-{[2-(3-chloro(2-pyridyl))-2-methylpropyl]amino}pyridazin-3-yl)-4-fluorobenzenecarbonitrile] | 
A (A=<1 uM) |  | CC(C)(CNc1ccc(-c2cccc(C(N)=O)c2)nn1)c1ncccc1Cl [3-(6-{[2-(3-chloro(2-pyridyl))-2-methylpropyl]amino}pyridazin-3-yl)benzamide] | 
B (B=1-10 uM) |  | CC(C)(CNc1ccc(-c2cccc(C#N)c2)nn1)c1ncccc1Cl [3-(6-{[2-(3-chloro(2-pyridyl))-2-methylpropyl]amino}pyridazin-3-yl)benzenecarbonitrile] | 
 | B (B=1-10 uM) | CC(C)(CNc1ccc(-c2cccc(C(N)=O)c2)nn1)c1ncccc1F [3-(6-{[2-(3-fluoro(2-pyridyl))-2-methylpropyl]amino}pyridazin-3-yl)benzamide] | 
 | A (A=<1 uM) | CC(C)(CNc1ccc(-c2cccc(C(N)=O)c2)nn1)c1cccc(F)c1 [3-(6-{[2-(3-fluorophenyl)-2-methylpropyl]amino}pyridazin-3-yl)benzamide] | 
 | B (B=1-10 uM) | CC(C)(CNc1ccc(-c2cccc(C(N)=O)c2)nn1)c1ccc(Cl)cc1 [3-(6-{[2-(4-chlorophenyl)-2-methylpropyl]amino}pyridazin-3-yl)benzamide] | 
 | B (B=1-10 uM) | Cc1cc(NCC(C)(C)c2ccc(F)cc2)nnc1-c1cccc(C(N)=O)c1 [3-(6-{[2-(4-fluorophenyl)-2-methylpropyl]amino}-4-methylpyridazin-3-yl)benzamide] | 
